Results from article PMC12064818, “A general assay platform to study protein pharmacology using ligand-dependent structural dynamics” (Nature Communications, 2025).

Experiments:
[1] = target: FLuc-C-HiBiT (firefly luciferase) (Photinus pyralis, UniProt P08659, form not given/L550V); assay: SDR assay, FLuc-C-HiBiT; settings: SDR max. response, clade S
[2] = target: FLuc-C-NLuc (firefly luciferase) (Photinus pyralis, UniProt P08659, form not given/L550V); assay: SDR assay, FLuc-C-NLuc; settings: - ATP
Sequence of FLuc-C-NLuc (firefly luciferase) (P08659 2-550 L550V, form open): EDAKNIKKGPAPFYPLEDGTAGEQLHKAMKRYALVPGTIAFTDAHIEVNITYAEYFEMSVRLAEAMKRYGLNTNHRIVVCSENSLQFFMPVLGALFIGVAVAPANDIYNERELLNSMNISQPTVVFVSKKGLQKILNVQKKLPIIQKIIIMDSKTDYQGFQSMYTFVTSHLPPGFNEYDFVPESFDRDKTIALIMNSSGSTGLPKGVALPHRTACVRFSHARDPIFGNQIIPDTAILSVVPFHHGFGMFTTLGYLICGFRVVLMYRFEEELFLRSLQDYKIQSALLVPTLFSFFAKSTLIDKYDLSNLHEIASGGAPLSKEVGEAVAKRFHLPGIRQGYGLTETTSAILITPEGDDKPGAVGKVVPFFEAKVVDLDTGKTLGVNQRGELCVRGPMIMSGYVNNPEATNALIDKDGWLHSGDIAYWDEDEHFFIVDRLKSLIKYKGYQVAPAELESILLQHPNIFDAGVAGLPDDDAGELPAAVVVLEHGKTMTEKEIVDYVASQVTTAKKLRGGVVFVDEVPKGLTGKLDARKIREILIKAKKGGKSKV

P. pyralis FLuc = P. pyralis FLuc (Photinus pyralis, UniProt P08659); assay: FLuc enzymatic luminescence assay, P. pyralis FLuc; type: biochemical; parameters: CC-v2: scale not given here; settings: for Efficacy (%) FLuc E / IC50: FLuc enzymatic assay; for Efficacy (%) FLuc E: Clade S follow-up; for CC-v2 / Efficacy / Hill Coef / Inf Activity / Max Resp / Zero Activity / AC50: Sample Data Type FLuc-Km; for IC50: read-out: IC50 or SDR50 (mM) FLuc E
Sequence of P. pyralis FLuc (P08659 whole entry): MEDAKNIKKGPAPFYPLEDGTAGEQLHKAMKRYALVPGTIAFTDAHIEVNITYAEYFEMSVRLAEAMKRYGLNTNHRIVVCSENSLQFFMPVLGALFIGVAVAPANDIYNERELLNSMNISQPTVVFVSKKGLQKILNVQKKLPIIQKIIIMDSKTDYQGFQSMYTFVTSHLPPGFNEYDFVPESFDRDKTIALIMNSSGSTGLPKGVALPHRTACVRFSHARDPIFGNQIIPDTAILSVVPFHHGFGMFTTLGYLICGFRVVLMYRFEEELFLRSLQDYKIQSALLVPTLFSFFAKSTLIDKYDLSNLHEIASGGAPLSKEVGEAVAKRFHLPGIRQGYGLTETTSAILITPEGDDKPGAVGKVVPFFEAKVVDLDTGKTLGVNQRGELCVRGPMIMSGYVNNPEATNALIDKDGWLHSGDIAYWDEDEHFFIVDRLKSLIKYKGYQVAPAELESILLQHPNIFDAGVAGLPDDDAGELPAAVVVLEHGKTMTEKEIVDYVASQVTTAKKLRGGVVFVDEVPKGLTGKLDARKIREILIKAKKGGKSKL
Experimental: The enzyme activity of FLuc-N-HiBiT, FLuc-C-HiBiT, and FLuc-C-NLuc was measured similar to P. pyralis firefly luciferase (FLuc) as previously described. […] Compounds and controls were added to each plate as described in Supplementary Data 8 with a Hornet pintool system (Wako Automation). Compounds were incubated with respective enzymes for 30–60 min at room temperature protected from light and covered by solid metal lid to prevent evaporation. […] Luciferin was incubated with FLuc enzyme for 5 min before FLuc activity was then measured on a ViewLux CCD imager (PerkinElmer), with exposure times up to ten seconds with medium to high gain settings. Data were normalized to average no enzyme control as 100% enzyme inhibition and average DMSO neutral control. See Supplementary Table 4 for additional details.
Assays were run in the presence (solid symbols) or absence
(open symbols) of 10 µM ATP. Corresponding SMIL E S for NC GC IDs and source data are provided in
Supplementary Data 3 and as a Source Data file. 10
Supplementary Table 4. Protocol for Firefly luciferase (FLuc) and NanoLuc (NLuc) enzymatic
Supplementary Table 4: Protocol for Firefly luciferase (FLuc) and NanoLuc (NLuc) enzym atic lum inescence assay
Firefly luciferase (FLuc) enzym atic lum inescence assay
Sequence Param eter Value Description
No enzym e control (colum n 1) and enzym e solution (1- 10 nM FLuc enzym e) in FLuc assay
1 Reagent 4 µLbuffer; white/solid bottom , m edium bind, high base plates (Greiner), dispensed with BioRaptr
com pounds transferred to respective colum ns with Pintool
2b Test Com pounds 23 nLconcentration range) in colum ns 5- 48; com pounds transferred to respective wells with
3 Incubation 30 m in Incubate enzym e + com pounds at am bient tem p for 30 m in, protected from light
4 Reagent 3 µLAdd 3 µL of D-luciferin substrate solution to each well (final concentration 10 µM); dispensed
5 Detector ViewLux Read plate lum inescence (Exposure = 1- 10 sec; Gain = Medium -high; Speed = Slow;
Dispensing solution was diluted in 1X PBS, pH 7.4. […]

FLuc-C-HiBiT = target: T1, FLuc-C-HiBiT (Photinus pyralis, UniProt P08659); assay: biochemical; settings: enzyme activity, 10 uM ATP; read-out: IC50 or SDR50 (mM) / FLuc E
T1 construct: firefly luciferase with C-terminal HiBiT tag, E. coli expressed
T1 sequence (P08659 whole entry, looked up): as the sequence (P08659 whole entry) above

Sequence of FLuc-C-HiBiT (firefly luciferase) (P08659 2-550 L550V, form open): as the sequence (P08659 2-550 L550V, form open) above

Question: What does the source list for CCC(CC)NC(=O)C1CCN(C(=O)c2ncn3c2COC(c2ccc(F)cc2)C3)CC1 (centres unmarked) [NCGC00430454-01]?
Answer: % Activity (max response, + ATP) [1]: 9.00%; % Activity (max response, - ATP) [1]: 0.00%; Efficacy (%) FLuc-C-NLuc SDR (-ATP) [2]: 0.00%; Efficacy (%) FLuc E (P. pyralis FLuc): -16.84%; CC-v2 (P. pyralis FLuc): 4; Efficacy (P. pyralis FLuc): -16.84; Hill Coef (P. pyralis FLuc): 1.51; Inf Activity (P. pyralis FLuc): -9.34; Max Resp (P. pyralis FLuc): -6.95; Zero Activity (P. pyralis FLuc): 7.50

Question: How did the “% Activity (max response, + ATP)” value [1] turn out when CC(C)CCNC(=O)C1CCN(C(=O)c2ncn3c2COC(c2ccc(F)cc2)C3)CC1 (centres unmarked) [NCGC00423180-01] was run?
Answer: 35.19%

Question: What about the “% Activity (max response, - ATP)” value [1] of the same molecule?
Answer: 0.00%

Question: What about the “Efficacy (%) FLuc-C-NLuc SDR (-ATP)” value [2] of the same molecule?
Answer: 0.00%

Question: And the “Efficacy (%) FLuc E” value (P. pyralis FLuc)?
Answer: -22.97%

Question: What about the CC-v2 (P. pyralis FLuc) of the same molecule?
Answer: 4

Question: And the Efficacy (P. pyralis FLuc)?
Answer: -22.97

Question: And the “Hill Coef” value (P. pyralis FLuc)?
Answer: 2.25

Question: What about the “Inf Activity” value (P. pyralis FLuc) of the same molecule?
Answer: -22.47

Question: What about the “Max Resp” value (P. pyralis FLuc) of the same molecule?
Answer: -18.73

Question: What about the “Zero Activity” value (P. pyralis FLuc) of the same molecule?
Answer: 0.50

Question: For CC(C)NC(=O)C1CCN(C(=O)c2ncn3c2COC(c2ccccc2)C3)CC1 (centres unmarked) [NCGC00449767-01], which “% Activity (max response, + ATP)” value [1] is on record?
Answer: 350.87%

Question: What about the “% Activity (max response, - ATP)” value [1] of the same molecule?
Answer: 0.00%

Question: And the “Efficacy (%) FLuc-C-NLuc SDR (-ATP)” value [2]?
Answer: 0.00%

Question: And the “Efficacy (%) FLuc E” value (P. pyralis FLuc)?
Answer: -88.78%

Question: And the IC50 (P. pyralis FLuc)?
Answer: 0.00248 mM

Question: What about the AC50 (P. pyralis FLuc) of the same molecule?
Answer: 2.48 µM

Question: What about the CC-v2 (P. pyralis FLuc) of the same molecule?
Answer: -1.1

Question: What about the Efficacy (P. pyralis FLuc) of the same molecule?
Answer: -88.78

Question: What about the “Hill Coef” value (P. pyralis FLuc) of the same molecule?
Answer: 1.10

Question: What about the “Inf Activity” value (P. pyralis FLuc) of the same molecule?
Answer: -90.78

Question: And the “Max Resp” value (P. pyralis FLuc)?
Answer: -86.46

Question: What about the “Zero Activity” value (P. pyralis FLuc) of the same molecule?
Answer: -2.01

Question: What about the IC50 (FLuc-C-HiBiT) of the same molecule?
Answer: 0.00351 mM

Question: For Cc1ccc(C2Cn3cnc(C(=O)N4CCC(C(=O)NCCC(C)C)CC4)c3CO2)cc1 (centres unmarked) [NCGC00422121-01], which “% Activity (max response, + ATP)” value [1] is on record?
Answer: 49.59%

Question: What about the “% Activity (max response, - ATP)” value [1] of the same molecule?
Answer: 0.00%

Question: And the “Efficacy (%) FLuc-C-NLuc SDR (-ATP)” value [2]?
Answer: 0.00%

Question: What about the “Efficacy (%) FLuc E” value (P. pyralis FLuc) of the same molecule?
Answer: -26.32%

Question: What about the IC50 (P. pyralis FLuc) of the same molecule?
Answer: 0.0139 mM

Question: And the AC50 (P. pyralis FLuc)?
Answer: 13.9 µM

Question: And the CC-v2 (P. pyralis FLuc)?
Answer: -2.4

Question: What about the Efficacy (P. pyralis FLuc) of the same molecule?
Answer: -26.32

Question: And the “Hill Coef” value (P. pyralis FLuc)?
Answer: 1.21

Question: And the “Inf Activity” value (P. pyralis FLuc)?
Answer: -27.95

Question: What about the “Max Resp” value (P. pyralis FLuc) of the same molecule?
Answer: -21.63

Question: And the “Zero Activity” value (P. pyralis FLuc)?
Answer: -1.63

Question: For O=C1Cc2c(-c3cccc4ccccc34)n[nH]c2CN1CCOc1ccccc1 [NCGC00409142-01], which IC50 (FLuc-C-HiBiT) is on record?
Answer: 0.018 mM

Question: Which IC50 (FLuc-C-HiBiT) does the source give for Cc1cc(NCCc2cnccn2)nc(-c2ccccc2O)n1 [NCGC00445970-01] here?
Answer: > 0.03 mM

Question: Cn1ccc2c(C(=O)NCCc3c[nH]cn3)nc(-c3ccc(N4CCOCC4)cc3)cc21 [NCGC00411589-01] was tested. Which IC50 (FLuc-C-HiBiT) did it give?
Answer: 0.00453 mM

Question: CC(C)c1ccc(C(=O)Nc2ccc(-c3nc4ccccc4s3)c(Cl)c2)cc1 [NCGC00101984-01] was tested. Which IC50 (FLuc-C-HiBiT) did it give?
Answer: > 0.03 mM

Question: How did the IC50 (FLuc-C-HiBiT) turn out when CC(C)n1cnnc1CN(C)c1nc(N)nc2[nH]cnc12 [NCGC00449084-01] was run?
Answer: > 0.03 mM

Question: How did the IC50 (FLuc-C-HiBiT) turn out when COc1cc(NC(=O)Nc2cccc(-c3ccc(N4CCOCC4)nn3)c2)cc(OC)c1 [NCGC00427592-01] was run?
Answer: 0.00176 mM

Question: CC(C)(C)CN1CCNc2cc(Nc3cccnc3)ncc2C1 [NCGC00411255-01] was tested. Which IC50 (FLuc-C-HiBiT) did it give?
Answer: 0.0064 mM

Question: With Cc1ccc(-c2cc3c(=O)n(CCNC(=O)Cc4cccc(F)c4)ccn3n2)c(C)c1 [NCGC00456965-01] as the molecule, how does the IC50 (FLuc-C-HiBiT) read?
Answer: 0.00556 mM

Question: With COc1ccc(-c2cc3c(cn2)CN(Cc2cccnc2)CCN3)cc1OC [NCGC00411110-01] as the molecule, how does the IC50 (FLuc-C-HiBiT) read?
Answer: 0.0143 mM

Question: COc1ccc(C(=O)NCCn2ccn3nc(-c4ccc(C)cc4C)cc3c2=O)c(C)c1 [NCGC00456977-01] was tested. Which IC50 (FLuc-C-HiBiT) did it give?
Answer: 0.00495 mM

Question: With O=C(Nc1nc2c(F)cc(F)cc2s1)c1ccc2c(c1)OCCO2 [NCGC00134168-01] as the molecule, how does the IC50 (FLuc-C-HiBiT) read?
Answer: 0.00176 mM
